Measured values reported in PubChem BioAssay AID1963974 (Molecular Pharmacology Branch, DTP, NCI, 2024).

Tested on: 648629-189-R-J1-PDC spheroids with HUVEC/MSC, viability
Assay: Anticancer human tumor 648629-189-R-J1-PDC patient-derived bladder carcinoma cell line growth inhibition [PI3K]
Details: for IC50: curve of first compound; for viability, T/C: stronger effect = lower value; active means viability on the fitted dose curve at most 10% of control; inactive means the rest
In short: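 Multi-cell spheroids combine tumor cells with HUVEC and human MSCs, treated with targeted agents alone or with inavolisib, alpelisib, duvelisib or copanlisib. Concentrations fall in half-log steps from at or near clinical Cmax, or from 10 microM where Cmax is unknown; viability read-out.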

[1] = second compound 0.00316 µM, first compound 0.0316 µM
[2] = second compound 0.00316 µM, first compound 0.1 µM
[3] = second compound 0.00316 µM, first compound 0.316 µM
[4] = second compound 0.00316 µM, first compound 1 µM
[5] = second compound 0.00316 µM, first compound 3.16 µM
[6] = second compound 0.00316 µM, first compound 10 µM
[7] = second compound 0.01 µM, first compound 0.0316 µM
[8] = second compound 0.01 µM, first compound 0.1 µM
[9] = second compound 0.01 µM, first compound 0.316 µM
[10] = second compound 0.01 µM, first compound 1 µM
[11] = second compound 0.01 µM, first compound 3.16 µM
[12] = second compound 0.01 µM, first compound 10 µM
[13] = second compound 0.0316 µM, first compound 0.0316 µM
[14] = second compound 0.0316 µM, first compound 0.1 µM
[15] = second compound 0.0316 µM, first compound 0.316 µM
[16] = second compound 0.0316 µM, first compound 1 µM
[17] = second compound 0.0316 µM, first compound 3.16 µM
[18] = second compound 0.0316 µM, first compound 10 µM
[19] = second compound 0.1 µM, first compound 0.0316 µM
[20] = second compound 0.1 µM, first compound 0.1 µM
[21] = second compound 0.1 µM, first compound 0.316 µM
[22] = second compound 0.1 µM, first compound 1 µM
[23] = second compound 0.1 µM, first compound 3.16 µM
[24] = second compound 0.1 µM, first compound 10 µM
[25] = second compound 0.316 µM, first compound 0.0316 µM
[26] = second compound 0.316 µM, first compound 0.1 µM
[27] = second compound 0.316 µM, first compound 0.316 µM
[28] = second compound 0.316 µM, first compound 1 µM
[29] = second compound 0.316 µM, first compound 3.16 µM
[30] = second compound 0.316 µM, first compound 10 µM
[31] = second compound 1 µM, first compound 0.0316 µM
[32] = second compound 1 µM, first compound 0.1 µM
[33] = second compound 1 µM, first compound 0.316 µM
[34] = second compound 1 µM, first compound 1 µM
[35] = second compound 1 µM, first compound 3.16 µM
[36] = second compound 1 µM, first compound 10 µM
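Further: spheroids exposed to agents for seven days before reading.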
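Wherever viability, T/C is given: percent of vehicle control luminescence where 100% = DMSO treated spheroids.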

C=CC(=O)N1CCN(c2nc(=O)n(-c3c(C)ccnc3C(C)C)c3nc(-c4c(O)cccc4F)c(F)cc23)C(C)C1 (stereo not given) + COc1c(OCCCN2CCOCC2)ccc2c3n(c(=NC(=O)c4cnc(N)nc4)nc12)CCN3
active: viability, T/C [31] 3.7% | viability, T/C [32] 4.13% | viability, T/C [33] 4.67% | viability, T/C [34] 6.38% | viability, T/C [35] 7.09% | viability, T/C [36] 8.01%
< 31.6 nM: IC50 (second compound 0.316 µM) | IC50 (second compound 1 µM)
inactive: viability, T/C [1] 114% | viability, T/C [2] 108% | viability, T/C [3] 114% | viability, T/C [4] 108% | viability, T/C [5] 119% | viability, T/C [6] 99.9% | viability, T/C [7] 94.3% | viability, T/C [8] 91.3% | viability, T/C [9] 101% | viability, T/C [10] 113% | viability, T/C [11] 115% | viability, T/C [12] 79.1% | viability, T/C [13] 83.4% | viability, T/C [14] 81.9% | viability, T/C [15] 104% | viability, T/C [16] 94.6% | viability, T/C [17] 107% | viability, T/C [18] 87.8% | viability, T/C [19] 57.3% | viability, T/C [20] 64.5% | viability, T/C [21] 63.5% | viability, T/C [22] 79.1% | viability, T/C [23] 81.3% | viability, T/C [24] 77.2% | viability, T/C [25] 18.8% | viability, T/C [26] 22.1% | viability, T/C [27] 29% | viability, T/C [28] 25.5% | viability, T/C [29] 38% | viability, T/C [30] 35.3%
> 10000 nM: IC50 (second compound 0.00316 µM) | IC50 (second compound 0.01 µM) | IC50 (second compound 0.0316 µM) | IC50 (second compound 0.1 µM)

CC(C)NCC(C(=O)N1CCN(c2ncnc3c2C(C)CC3O)CC1)c1ccc(Cl)cc1 (stereo not given) + COc1c(OCCCN2CCOCC2)ccc2c3n(c(=NC(=O)c4cnc(N)nc4)nc12)CCN3
active: viability, T/C [24] 8.23% | viability, T/C [29] 7.28% | viability, T/C [30] 2.74% | viability, T/C [31] 2.91% | viability, T/C [32] 2.63% | viability, T/C [33] 3.85% | viability, T/C [34] 3% | viability, T/C [35] 2.11% | viability, T/C [36] 0.84%
901 nM: IC50 (second compound 0.00316 µM)
< 31.6 nM: IC50 (second compound 0.316 µM) | IC50 (second compound 1 µM)
1030 nM: IC50 (second compound 0.01 µM)
inactive: viability, T/C [1] 90.2% | viability, T/C [2] 91.7% | viability, T/C [3] 79% | viability, T/C [4] 45.4% | viability, T/C [5] 26.1% | viability, T/C [6] 14.3% | viability, T/C [7] 102% | viability, T/C [8] 73.5% | viability, T/C [9] 75.1% | viability, T/C [10] 54% | viability, T/C [11] 26.2% | viability, T/C [12] 13.3% | viability, T/C [13] 77.7% | viability, T/C [14] 77.6% | viability, T/C [15] 67.1% | viability, T/C [16] 40.5% | viability, T/C [17] 24.6% | viability, T/C [18] 11.6% | viability, T/C [19] 60.1% | viability, T/C [20] 51.3% | viability, T/C [21] 45% | viability, T/C [22] 27% | viability, T/C [23] 16.9% | viability, T/C [25] 19.3% | viability, T/C [26] 18.4% | viability, T/C [27] 14.6% | viability, T/C [28] 12%
144 nM: IC50 (second compound 0.1 µM)
698 nM: IC50 (second compound 0.0316 µM)

CCN1CCN(Cc2ccc(Nc3ncc(F)c(-c4cc(F)c5nc(C)n(C(C)C)c5c4)n3)nc2)CC1 + COc1c(OCCCN2CCOCC2)ccc2c3n(c(=NC(=O)c4cnc(N)nc4)nc12)CCN3
active: viability, T/C (second compound 1 µM, first compound 0.00316 µM) 3.05% | viability, T/C (second compound 1 µM, first compound 0.01 µM) 2.93% | viability, T/C [31] 2.76% | viability, T/C [32] 4.51% | viability, T/C [33] 6.23% | viability, T/C [34] 9.27%
> 1000 nM: IC50 (second compound 0.00316 µM) | IC50 (second compound 0.01 µM) | IC50 (second compound 0.0316 µM) | IC50 (second compound 0.1 µM)
< 3.16 nM: IC50 (second compound 0.316 µM) | IC50 (second compound 1 µM)
inactive: viability, T/C (second compound 0.00316 µM, first compound 0.00316 µM) 91% | viability, T/C (second compound 0.00316 µM, first compound 0.01 µM) 94.8% | viability, T/C [1] 110% | viability, T/C [2] 101% | viability, T/C [3] 115% | viability, T/C [4] 104% | viability, T/C (second compound 0.01 µM, first compound 0.00316 µM) 102% | viability, T/C (second compound 0.01 µM, first compound 0.01 µM) 87.8% | viability, T/C [7] 98.9% | viability, T/C [8] 96.5% | viability, T/C [9] 103% | viability, T/C [10] 106% | viability, T/C (second compound 0.0316 µM, first compound 0.00316 µM) 84.9% | viability, T/C (second compound 0.0316 µM, first compound 0.01 µM) 79% | viability, T/C [13] 91.3% | viability, T/C [14] 88.5% | viability, T/C [15] 87.9% | viability, T/C [16] 91% | viability, T/C (second compound 0.1 µM, first compound 0.00316 µM) 58.6% | viability, T/C (second compound 0.1 µM, first compound 0.01 µM) 62.4% | viability, T/C [19] 56% | viability, T/C [20] 58.5% | viability, T/C [21] 66.6% | viability, T/C [22] 66.1% | viability, T/C (second compound 0.316 µM, first compound 0.00316 µM) 21.4% | viability, T/C (second compound 0.316 µM, first compound 0.01 µM) 18.9% | viability, T/C [25] 18.8% | viability, T/C [26] 19.7% | viability, T/C [27] 24.1% | viability, T/C [28] 21.7%

Cn1ncc(Cl)c1-c1cc(C(=O)NC(CN)Cc2cccc(F)c2)sc1Cl (stereo not given) + COc1c(OCCCN2CCOCC2)ccc2c3n(c(=NC(=O)c4cnc(N)nc4)nc12)CCN3
< 31.6 nM: IC50 (second compound 0.316 µM) | IC50 (second compound 1 µM)
419 nM: IC50 (second compound 0.0316 µM)
inactive: viability, T/C [1] 110% | viability, T/C [2] 102% | viability, T/C [3] 59.3% | viability, T/C [4] 40.3% | viability, T/C [5] 23.1% | viability, T/C [6] 7.29% | viability, T/C [7] 97.9% | viability, T/C [8] 84% | viability, T/C [9] 70.5% | viability, T/C [10] 35.2% | viability, T/C [11] 22.1% | viability, T/C [13] 84.6% | viability, T/C [14] 78.2% | viability, T/C [15] 53.5% | viability, T/C [16] 32.2% | viability, T/C [17] 16.9% | viability, T/C [19] 67.5% | viability, T/C [20] 52.1% | viability, T/C [21] 34% | viability, T/C [22] 21.8% | viability, T/C [23] 10.3% | viability, T/C [25] 21.9% | viability, T/C [26] 16.6% | viability, T/C [27] 11.8%
110 nM: IC50 (second compound 0.1 µM)
639 nM: IC50 (second compound 0.01 µM)
620 nM: IC50 (second compound 0.00316 µM)
active: viability, T/C [12] 6.56% | viability, T/C [18] 4.04% | viability, T/C [24] 3.19% | viability, T/C [28] 7.56% | viability, T/C [29] 4.03% | viability, T/C [30] 1.46% | viability, T/C [31] 4.06% | viability, T/C [32] 2.7% | viability, T/C [33] 2.87% | viability, T/C [34] 2.72% | viability, T/C [35] 2.27% | viability, T/C [36] 0.3%

Cn1nccc1Nc1nccc(-c2ccn(C(CO)c3ccc(Cl)c(F)c3)c(=O)c2)n1 (stereo not given) + COc1c(OCCCN2CCOCC2)ccc2c3n(c(=NC(=O)c4cnc(N)nc4)nc12)CCN3
active: viability, T/C [31] 3.68% | viability, T/C [32] 3.03% | viability, T/C [33] 3.39% | viability, T/C [34] 3.34% | viability, T/C [35] 8.78% | viability, T/C [36] 9.04%
< 31.6 nM: IC50 (second compound 0.316 µM) | IC50 (second compound 1 µM)
> 10000 nM: IC50 (second compound 0.00316 µM) | IC50 (second compound 0.01 µM) | IC50 (second compound 0.0316 µM) | IC50 (second compound 0.1 µM)
inactive: viability, T/C [1] 103% | viability, T/C [2] 92.3% | viability, T/C [3] 106% | viability, T/C [4] 103% | viability, T/C [5] 98% | viability, T/C [6] 79.2% | viability, T/C [7] 113% | viability, T/C [8] 96.8% | viability, T/C [9] 104% | viability, T/C [10] 111% | viability, T/C [11] 107% | viability, T/C [12] 79.4% | viability, T/C [13] 90.9% | viability, T/C [14] 91.4% | viability, T/C [15] 86.3% | viability, T/C [16] 110% | viability, T/C [17] 102% | viability, T/C [18] 79.2% | viability, T/C [19] 70.1% | viability, T/C [20] 65.7% | viability, T/C [21] 64.2% | viability, T/C [22] 83% | viability, T/C [23] 83.3% | viability, T/C [24] 68.8% | viability, T/C [25] 20.6% | viability, T/C [26] 21.1% | viability, T/C [27] 26.9% | viability, T/C [28] 28.3% | viability, T/C [29] 48.6% | viability, T/C [30] 44.5%
